Reference: ChEMBL document CHEMBL4000169, “Overexpression of the Global Regulator LaeA in Chaetomium globosum Leads to the Biosynthesis of Chaetoglobosin Z” (J Nat Prod, 2016)
pIC50: −log10 of the molar value.

Tested on: HepG2
Assay: Cytotoxicity against human HepG2 cells by MTT assay
Assay type: functional, cell-based

| Structure (SMILES) | pIC50 |
| --- | --- |
| CC1=C(C)[C@H]2[C@H](Cc3c[nH]c4ccccc34)NC(=O)[C@]23C(=O)CCC(=O)[C@H](O)/C(C)=C/[C@@H](C)C/C=C/[C@H]3[C@@H]1O | 5.07 |
| C/C1=C\[C@@H](C)C/C=C/[C@H]2C(=O)[C@@H](C)[C@@H](C)[C@H]3[C@H](Cc4c[nH]c5ccccc45)NC(=O)[C@]32C(=O)/C=C/C(=O)[C@@H]1O | 5.54 |
| CC1=C(O)C(=O)[C@H]2CC(=O)[C@@]34C(=O)N[C@@H](Cc5c[nH]c6ccccc56)[C@@H]3C(C)=C(C)[C@@H](O)[C@@H]4/C=C/C[C@H](C)[C@H]12 | 4.89 |
| C/C1=C\[C@@H](C)C/C=C/[C@H]2[C@@H]3O[C@]3(C)[C@@H](C)[C@H]3[C@H](Cc4c[nH]c5ccccc45)NC(=O)[C@]32C(=O)/C=C/C(=O)[C@@H]1O [CHAETOGLOBOSIN A] | 5.20 |
| CC1=C(C)[C@H]2[C@H](Cc3c[nH]c4ccccc34)NC(=O)[C@]23C(=O)CC[C@H](O)C(=O)/C(C)=C/[C@@H](C)C/C=C/[C@H]3[C@@H]1O [CHAETOGLOBOSIN E] | 5.44 |
| CC1=C(C)[C@H]2[C@H](Cc3c[nH]c4ccccc34)NC(=O)[C@]23C(=O)/C=C/C(=O)[C@H](O)/C(C)=C/[C@@H](C)C/C=C/[C@H]3[C@@H]1O [CHEATOGLOBOSIN B] | 5.28 |
| COc1cc([C@@H]2c3cc4c(cc3[C@@H](O[C@@H]3O[C@@H]5CO[C@@H](C)O[C@H]5[C@H](O)[C@H]3O)[C@H]3COC(=O)[C@H]23)OCO4)cc(OC)c1O [ETOPOSIDE] | 4.80 |
